target: recombinant hSSAO (Homo sapiens (Human), UniProt Q16853); experiment: SSAO Activity Assay (MAO-Glo assay kit); format: biochemical; details: 40 μM substrate, 30 mins pre-incubation
Procedure: The biological activities of the compounds of the present application can be assessed with methods and assays known in the art. For example, the potency of the compounds of the present application can be evaluated with an SSAO Activity Assay. Briefly, compounds of the present application can be applied to recombinant hSSAO, hMAO-A, and hMAO-B isoforms and the amine oxidase activity of the enzymes are measured after the addition and subsequent oxidation of the luminogenic substrate (e.g., with the MAO-Glo assay kit from Promega). The IC50 can be calculated, for example, by fitting the dose response curve using a 4-parameter non-linear regression routine.
Amine oxidase activity of recombinant hSSAO, hMAO-A, and hMAO-B isoforms are measured using the MAO-Glo assay kit (Promega, V1402). Ten nL test compounds (with DMSO as vehicle, 0.1% v/v for hSSAO, hMAO-A and hMAO-B) were added into assay plates by Echo, and pre-incubated with 5 μL of enzyme for 30 mins at room temperature before the addition of 5 μL of luminogenic substrate. The substrate concentration is 40 μM for human recombinant SSAO, 40 μM for human recombinant MAO-A, and 4 μM for human recombinant MAO-B. The hSSAO and hMAO-A assays were conducted in the MAO-A reaction buffer in the kit, and the MAO-B assay was conducted in the MAO-B reaction buffer. Oxidation of the substrate was conducted for 1 hr, before the addition of detecting reagent according the manufacture's protocol. The IC50 value of the tested compounds was calculated by fitting the dose response curve using a 4-parameter non-linear regression routine.

recombinant hSSAO, sequence (Q16853 whole entry, canonical isoform): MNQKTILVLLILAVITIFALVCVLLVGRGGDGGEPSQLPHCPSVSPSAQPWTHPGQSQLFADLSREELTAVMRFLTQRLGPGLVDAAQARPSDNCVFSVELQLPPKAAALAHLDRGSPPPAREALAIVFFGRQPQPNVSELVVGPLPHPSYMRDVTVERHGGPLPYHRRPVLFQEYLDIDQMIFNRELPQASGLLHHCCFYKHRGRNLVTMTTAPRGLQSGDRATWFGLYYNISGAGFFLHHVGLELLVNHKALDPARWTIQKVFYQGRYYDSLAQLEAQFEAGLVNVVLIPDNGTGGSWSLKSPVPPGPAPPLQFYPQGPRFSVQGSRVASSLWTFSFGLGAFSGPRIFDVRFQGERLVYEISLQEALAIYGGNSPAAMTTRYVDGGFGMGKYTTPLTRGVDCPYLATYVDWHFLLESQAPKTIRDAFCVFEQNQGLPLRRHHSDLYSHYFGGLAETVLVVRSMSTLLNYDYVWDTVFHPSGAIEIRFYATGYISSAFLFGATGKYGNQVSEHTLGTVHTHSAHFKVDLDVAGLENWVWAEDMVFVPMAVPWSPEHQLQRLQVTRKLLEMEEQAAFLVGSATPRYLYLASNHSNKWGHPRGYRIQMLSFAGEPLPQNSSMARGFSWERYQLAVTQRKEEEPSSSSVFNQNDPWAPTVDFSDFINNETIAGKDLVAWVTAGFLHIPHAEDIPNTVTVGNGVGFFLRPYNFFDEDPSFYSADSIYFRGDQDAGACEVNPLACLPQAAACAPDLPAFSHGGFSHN

IC50	SMILES
0.02 to 0.1 µM	CC(C)C(=O)Nc1ccc(CS(=O)(=O)c2ccc(OC/C(=C/F)CN)cc2)cc1 [compound 45, (E)-N-(4-(((4-((2-(aminomethyl)-3-fluoroallyl)oxy)phenyl)sulfonyl)methyl)phenyl)isobutyramide]
0.02 to 0.1 µM	CC(C)C(=O)N1CC(CS(=O)(=O)c2ccc(OC/C(=C/F)CN)cc2)C1 [compound 52, (E)-1-(3-(((4-((2-(aminomethyl)-3-fluoroallyl)oxy)phenyl)sulfonyl)methyl)azetidin-1-yl)-2-methylpropan-1-one]
0.02 to 0.1 µM	CC(C)C(=O)N1CCC(C)(CS(=O)(=O)c2ccc(OC/C(=C/F)CN)cc2)CC1 [compound 53, (E)-1-(4-(((4-((2-(aminomethyl)-3-fluoroallyl)oxy)phenyl)sulfonyl)methyl)-4-methylpiperidin-1-yl)-2-methylpropan-1-one]
0.02 to 0.1 µM	NC/C(=C\F)COc1ccc(S(=O)(=O)CC2CCN(C(=O)C3CC3)CC2)c(Cl)c1 [compound 60, (E)-(4-(((4-((2-(aminomethyl)-3-fluoroallyl)oxy)-2-chlorophenyl)sulfonyl)methyl)piperidin-1-yl)(cyclopropyl)methanone]
0.02 to 0.1 µM	NC/C(=C\F)COc1ccc(S(=O)(=O)CC23CCC(C(=O)N4CCC(F)(F)CC4)(CC2)CC3)cc1 [compound 63, (E)-(4-(((4-((2-(aminomethyl)-3-fluoroallyl)oxy)phenyl)sulfonyl)methyl)bicyclo[2.2.2]octan-1-yl)(4,4-difluoropiperidin-1-yl)methanone]
0.02 to 0.1 µM	CN(C(=O)C1CC1)C12CCC(CS(=O)(=O)c3ccc(OC/C(=C/F)CN)cc3)(CC1)CC2 [compound 78, (E)-N-(4-(((4-((2-(aminomethyl)-3-fluoroallyl)oxy)phenyl)sulfonyl)methyl)bicyclo[2.2.2]octan-1-yl)-N-methylcyclopropanecarboxamide]
0.1 to 0.5 µM	CC(C)N(C)C(=O)C(C)(C)CS(=O)(=O)c1ccc(OC/C(=C/F)CN)cc1 [compound 95, (E)-3-((4-((2-(aminomethyl)-3-fluoroallyl)oxy)phenyl)sulfonyl)-N-isopropyl-N,2,2-trimethylpropanamide]
0.02 to 0.1 µM	CCN(CC(C)CS(=O)(=O)c1ccc(OC/C(=C/F)CN)cc1)C(=O)C(C)C (centres unmarked) [compound 97, (E)-N-(3-((4-((2-(aminomethyl)-3-fluoroallyl)oxy)phenyl)sulfonyl)-2-methylpropyl)-N-ethylisobutyramide]
0.02 to 0.1 µM	CC(C)n1ccc(CS(=O)(=O)c2ccc(OC/C(=C/F)CN)cc2)cc1=O [compound 101, (E)-4-(((4-((2-(aminomethyl)-3-fluoroallyl)oxy)phenyl)sulfonyl)methyl)-1-isopropylpyridin-2(1H)-one]
0.02 to 0.1 µM	NC/C(=C\F)COc1ccc(S(=O)(=O)Cc2cnc(N3CCCC3)nc2)cc1 [compound 103, (E)-3-fluoro-2-((4-(((2-(pyrrolidin-1-yl)pyrimidin-5-yl)methyl)sulfonyl)phenoxy)methyl) prop-2-en-1-amine]
0.02 to 0.1 µM	NC/C(=C\F)COc1ccc(S(=O)(=O)CC2(CN3CCCCC3=O)CC2)cc1 [compound 106, (E)-1-((1-(((4-((2-(aminomethyl)-3-fluoroallyl)oxy)phenyl)sulfonyl)methyl)cyclopropyl)methyl)piperidin-2-one]
0.02 to 0.1 µM	C[C@@H](CS(=O)(=O)c1ccc(OC/C(=C/F)CN)cc1)N1CCCCC1=O [compound 108, (S,E)-1-(1-((4-((2-(aminomethyl)-3-fluoroallyl)oxy)phenyl)sulfonyl)propan-2-yl)piperidin-2-one]
0.02 to 0.1 µM	CC(C)(CN1CCOCC1)CS(=O)(=O)c1ccc(OC/C(=C/F)CN)cc1 [compound 115, (E)-2-((4-((2,2-dimethyl-3-morpholinopropyl)sulfonyl)phenoxy)methyl)-3-fluoroprop-2-en-1-amine]
0.1 to 0.5 µM	NC/C(=C\F)COc1ccc(S(=O)(=O)CN2CCCC2=O)cc1 [compound 117, (E)-1-(((4-((2-(aminomethyl)-3-fluoroallyl)oxy)phenyl)sulfonyl)methyl)pyrrolidin-2-one]
0.02 to 0.1 µM	NC/C(=C\F)COc1ccc(S(=O)(=O)Cn2ccccc2=O)cc1 [compound 121, (E)-1-(((4-((2-(aminomethyl)-3-fluoroallyl)oxy)phenyl)sulfonyl)methyl)pyridin-2(1H)-one]
0.02 to 0.1 µM	CC(C)N1CCN(CS(=O)(=O)c2ccc(OC/C(=C/F)CN)cc2)C(=O)C1 [compound 135, (E)-1-(((4-((2-(aminomethyl)-3-fluoroallyl)oxy)phenyl)sulfonyl)methyl)-4-isopropylpiperazin-2-one]
0.02 to 0.1 µM	NC/C(=C\F)COc1ccc(S(=O)(=O)CC23CC(C(=O)NC4CCC4)(C2)C3)cc1 [compound 138, (E)-3-(((4-((2-(aminomethyl)-3-fluoroallyl)oxy)phenyl)sulfonyl)methyl)-N-cyclobutylbicyclo[1.1.1]pentane-1-carboxamide]

Second part, the molecule before the results:

SMILES	IC50
CC1(C)COC(CS(=O)(=O)c2ccc(OC/C(=C/F)CN)cc2)CO1 (centres unmarked) [compound 2, (E)-2-((4-(((5,5-dimethyl-1,4-dioxan-2-yl)methyl)sulfonyl)phenoxy)methyl)-3-fluoroprop-2-en-1-amine]	0.02 to 0.1 µM
NC/C(=C\F)COc1ccc(S(=O)(=O)CC2CCOCC2)c(F)c1 [compound 6, (E)-3-fluoro-2-((3-fluoro-4-(((tetrahydro-2H-pyran-4-yl)methyl)sulfonyl)phenoxy)methyl) prop-2-en-1-amine]	0.02 to 0.1 µM
NC/C(=C\F)COc1ccc(S(=O)(=O)CC2(O)CCOCC2)cc1 [compound 10, (E)-4-(((4-((2-(aminomethyl)-3-fluoroallyl)oxy)phenyl)sulfonyl)methyl)tetrahydro-2H-pyran-4-ol]	0.02 to 0.1 µM
COC1(CS(=O)(=O)c2ccc(OC/C(=C/F)CN)cc2)CCOCC1 [compound 11, (E)-3-fluoro-2-((4-(((4-methoxytetrahydro-2H-pyran-4-yl)methyl)sulfonyl)phenoxy)methyl) prop-2-en-1-amine]	0.02 to 0.1 µM
NC/C(=C\F)COc1ccc(S(=O)(=O)CC23CCC(C4(NC(=O)C5CC5)CC4)(CC2)CC3)cc1 [compound 16, (E)-N-(1-(4-(((4-((2-(aminomethyl)-3-fluoroallyl)oxy)phenyl)sulfonyl)methyl)bicyclo[2.2.2]octan-1-yl)cyclopropyl) cyclopropanecarboxamide]	0.02 to 0.1 µM
COCC(COC)CS(=O)(=O)c1ccc(OC/C(=C/F)CN)cc1 [compound 25, (E)-3-fluoro-2-((4-((3-methoxy-2-(methoxymethyl)propyl)sulfonyl)phenoxy)methyl)prop-2-en-1-amine]	0.02 to 0.1 µM
NC/C(=C\F)COc1ccc(S(=O)(=O)COC2CCOCC2)cc1 [compound 26, (E)-3-fluoro-2-((4-((((tetrahydro-2H-pyran-4-yl)oxy)methyl)sulfonyl)phenoxy)methyl)prop-2-en-1-amine]	0.02 to 0.1 µM
NC/C(=C\F)COc1ccc(S(=O)(=O)COC2CCN(C(=O)C3CCCC3)CC2)cc1 [compound 27, (E)-(4-(((4-((2-(aminomethyl)-3-fluoroallyl)oxy)phenyl)sulfonyl)methoxy)piperidin-1-yl)(cyclopentyl)methanone]	0.02 to 0.1 µM
COCCOCS(=O)(=O)c1ccc(OC/C(=C/F)CN)cc1 [compound 29, (E)-3-fluoro-2-((4-(((2-methoxyethoxy)methyl)sulfonyl)phenoxy)methyl)prop-2-en-1-amine]	0.02 to 0.1 µM
CC1(COCS(=O)(=O)c2ccc(OC/C(=C/F)CN)cc2)CCOCC1 [compound 31, (E)-3-fluoro-2-((4-((((4-methyltetrahydro-2H-pyran-4-yl)methoxy)methyl)sulfonyl)phenoxy)methyl)prop-2-en-1-amine]	0.02 to 0.1 µM
N#CC1(COCS(=O)(=O)c2ccc(OC/C(=C/F)CN)cc2)CCOCC1 [compound 32, (E)-4-((((4-((2-(aminomethyl)-3-fluoroallyl)oxy)phenyl)sulfonyl)methoxy)methyl)tetrahydro-2H-pyran-4-carbonitrile]	0.02 to 0.1 µM
CC(C)C(=O)N1CCC(C)(COCS(=O)(=O)c2ccc(OC/C(=C/F)CN)cc2)CC1 [compound 33, (E)-1-(4-((((4-((2-(aminomethyl)-3-fluoroallyl)oxy)phenyl)sulfonyl)methoxy)methyl)-4-methylpiperidin-1-yl)-2-methylpropan-1-one]	0.02 to 0.1 µM
CC1(COCS(=O)(=O)c2ccc(OC/C(=C/F)CN)cc2)CCN(C(=O)C(C)(C)C)CC1 [compound 34, (E)-1-(4-((((4-((2-(aminomethyl)-3-fluoroallyl)oxy)phenyl)sulfonyl)methoxy)methyl)-4-methylpiperidin-1-yl)-2,2-dimethylpropan-1-one]	0.02 to 0.1 µM
COCC(COC)OCS(=O)(=O)c1ccc(OC/C(=C/F)CN)cc1 [compound 36, (E)-2-((4-((((1,3-dimethoxypropan-2-yl)oxy)methyl)sulfonyl)phenoxy)methyl)-3-fluoroprop-2-en-1-amine]	0.02 to 0.1 µM
CC(C)(C)C(=O)N1CCC(CS(=O)(=O)c2ccc(OC/C(=C/F)CN)cc2)CC1 [compound 41, (E)-1-(4-(((4-((2-(aminomethyl)-3-fluoroallyl)oxy)phenyl)sulfonyl)methyl)piperidin-1-yl)-2,2-dimethylpropan-1-one]	0.02 to 0.1 µM
